Reference: ChEMBL document CHEMBL6109078, “Pyrylium derivatives as outer membrane permeabilizers against MDR gram-negative bacteria via multi-target mode of action” (Eur J Med Chem, 2025)
The source made the active and inactive calls. The rule behind the calls is not given here.

What was measured:
Acinetobacter baumannii [1] = assay: Synergistic antibacterial activity against multi-drug resistant Acinetobacter baumannii clinical isolate 14 assessed as fractional inhibitory concentration index in presence of polymyxin B by checkerboard assay; type: functional
Escherichia coli [2] = assay: Antibacterial activity against Escherichia coli ATCC 25922 infected in Galleria mellonella larvae assessed as survival rate of larvae at 50 microg/ml relative to control; type: functional
Escherichia coli [3] = assay: Synergistic antibacterial activity against Escherichia coli ATCC 25922 infected in Galleria mellonella larvae assessed as survival rate of larvae at 50 microg/ml in presence of polymyxin B relative to control; type: functional
Acinetobacter baumannii [4] = assay: Antibacterial activity against Acinetobacter baumannii ATCC 19606 infected in Galleria mellonella larvae assessed as survival rate of larvae at 50 microg/ml measured after 96 hrs relative to control; type: functional
Acinetobacter baumannii [5] = assay: Synergistic antibacterial activity against Acinetobacter baumannii ATCC 19606 infected in Galleria mellonella larvae assessed as survival rate of larvae at 50 microg/ml measured after 96 hrs in presence of polymyxin B relative to control; type: functional
Lipopolysaccharide (LPS) [6] = assay: Binding affinity to LPS (unknown origin) by BLI analysis; conditions: dose 3.13-25 µg/ml
Lipopolysaccharide (LPS) [7] = assay: Binding affinity to LPS (unknown origin) assessed as dissociation constant by BLI analysis
Lipopolysaccharide (LPS) [8] = assay: Binding affinity to LPS (unknown origin) assessed as exothermic heat release at 100 mM by ITC analysis; conditions: time <= 40.0 min
Escherichia coli [9] = assay: Antibacterial activity against Escherichia coli ATCC 25922 assessed as inhibition of bacterial growth by measuring fold increase in MIC incubated for 16 to 18 hrs in presence of Mg2+; type: functional; conditions: time 16-18 hrs
Bacteria [10] = assay: Inhibition of His-tagged His-tagged LptA/LptC (unknown origin) protein-protein interaction extracted from Escherichia coli BL21 (DE3) cells by BLI analysis; conditions: dose 0.39-1.56 µg/ml
Bacteria [11] = assay: Binding affinity to His-tagged LptC (unknown origin) extracted from Escherichia coli BL21 (DE3) cells by BLI analysis

CCN(CC)c1ccc(/C=C/c2cc(C(C)(C)C)[o+]c(C(C)(C)C)c2)cc1.O=S(=O)([O-])C(F)(F)F
fractional inhibitory concentration index (FICI) (Acinetobacter baumannii [1]): 0.141
survival at 50 µg/mL (Escherichia coli [2]): 20%
survival at 50 µg/mL (Escherichia coli [3]): 70%
survival at 50 µg/mL (Acinetobacter baumannii [4]): 10%
survival at 50 µg/mL (Acinetobacter baumannii [5]): 80%
Activity (Lipopolysaccharide (LPS) [6]): Dose-dependent-effect
Kd (Lipopolysaccharide (LPS) [7]): 4 µM
Activity (Lipopolysaccharide (LPS) [8]): Time-dependent-effect
fold change (FC) (Escherichia coli [9]): 2
inhibition (Bacteria [10]): Dose-dependent-effect

CN1CCOc2cc(/C=C/c3cc(C(C)(C)C)[o+]c(C(C)(C)C)c3)ccc21.O=S(=O)([O-])C(F)(F)F
Activity (Bacteria [11]): inactive

CC(C)(C)c1cc(/C=C/c2ccc(N3CCCC3)cc2)cc(C(C)(C)C)[o+]1.O=S(=O)([O-])C(F)(F)F
fractional inhibitory concentration index (FICI) (Acinetobacter baumannii [1]): 0.313
fold change (FC) (Escherichia coli [9]): 2
